Measured values as given in ChEMBL document CHEMBL5257100, “Discovery and development of benzene sulfonamide derivatives as anti-hepatic fibrosis agents” (Bioorg Med Chem Lett, 2023).
Activity calls are given as the source filed them. No cut-off for these calls is given here.

Assays:
[1] = Anti-hepatic fibrosis activity in human LX2 cells assessed as inhibition of COL1A1 promoter activity at 25 micromol/L by luciferase reporter assay relative to control; format: functional; details: LX-2, dose 25 µmol/L
[2] = system: LX-2; assay: Anti-hepatic fibrosis activity in human LX2 cells assessed as inhibition of TGF-beta1 induced COL1A1 mRNA expression at 3 micromol/L incubated for 24 hrs by qPCR analysis; format: functional, cell-based; details: dose 3.0 µmol/L
[3] = system: LX-2; assay: Anti-hepatic fibrosis activity in human LX2 cells assessed as inhibition of TGFbeta1-induced FN protein expression at 3 uM incubated for 24 hrs by western blot analysis; format: functional, cell-based
[4] = system: LX-2; assay: Anti-hepatic fibrosis activity in human LX2 cells assessed as inhibition of TGFbeta1-induced TIMP-1 protein expression at 3 uM incubated for 24 hrs by western blot analysis; format: functional, cell-based
[5] = system: LX-2; assay: Anti-hepatic fibrosis activity in human LX2 cells assessed as inhibition of TGFbeta1-induced alpha-SMA protein expression at 3 uM incubated for 24 hrs by western blot analysis; format: functional, cell-based
[6] = system: LX-2; assay: Anti-hepatic fibrosis activity in human LX2 cells assessed as inhibition of TGFbeta1-induced COL1A1 protein expression at 3 uM incubated for 24 hrs by western blot analysis; format: functional, cell-based

SMILES | inhibition at 25 µM [1] [%] | also measured
O=C(Nc1cccc(C(F)(F)F)c1)Nc1ccccc1NS(=O)(=O)c1cccc([N+](=O)[O-])c1 | 22.8 | 
O=C(Nc1ccc(Cl)c(Cl)c1)Nc1ccccc1NS(=O)(=O)c1ccc([N+](=O)[O-])cc1 | 28.5 | inhibition [2]: Active
O=C(Nc1ccc(C(F)(F)F)cc1)Nc1ccccc1NS(=O)(=O)c1ccc([N+](=O)[O-])cc1 | 21.3 | 
O=[N+]([O-])c1cccc(S(=O)(=O)Nc2ccccc2CNc2cc(Cl)ccc2Cl)c1 | 40 | 
Cc1cccc(S(=O)(=O)Nc2ccccc2NC(=O)Nc2cc(Cl)c(Cl)c(Cl)c2)c1 | 24.9 | 
O=C(Nc1ccccc1NS(=O)(=O)c1cccc([N+](=O)[O-])c1)c1ccc(Cl)c(Cl)c1 | 30.9 | 
COc1ccc(C(F)(F)F)cc1NC(=O)Nc1ccccc1NS(=O)(=O)c1cccc([N+](=O)[O-])c1 | 20.2 | 
O=C(O[C@@H]1Cc2c(O)cc(O)cc2O[C@@H]1c1cc(O)c(O)c(O)c1)c1cc(O)c(O)c(O)c1 [EPIGALOCATECHIN GALLATE] | 25.3 | 
O=S(=O)(Nc1ccccc1CNc1cc(Cl)c(Cl)c(Cl)c1)c1ccc(OC(F)(F)F)cc1 | 42.4 | 
O=C(Nc1cccc(C(F)(F)F)c1)Nc1ccccc1NS(=O)(=O)c1ccc([N+](=O)[O-])cc1 | 22.9 | 
O=C(Nc1ccccc1NS(=O)(=O)c1ccc([N+](=O)[O-])cc1)c1ccc(Cl)cc1Cl | 33 | 
COc1ccc(C(=O)Nc2ccccc2NS(=O)(=O)c2cccc([N+](=O)[O-])c2)cc1 | 33.6 | 
O=S(=O)(Nc1ccccc1CNc1cc(Cl)c(Cl)c(Cl)c1)c1ccc(C(F)(F)F)cc1 | 42.4 | 
O=C(Nc1ccc(C(F)(F)F)cc1)Nc1ccccc1NS(=O)(=O)c1cccc([N+](=O)[O-])c1 | 17.8 | 
O=C(Nc1ccc(Cl)cc1Cl)Nc1ccccc1NS(=O)(=O)c1cccc([N+](=O)[O-])c1 | 29.8 | 
CC[C@H]1[C@@H](O)[C@@H]2[C@H](CC[C@]3(C)[C@@H]([C@H](C)CCC(=O)O)CC[C@@H]23)[C@@]2(C)CC[C@@H](O)C[C@@H]12 [OBETICHOLIC ACID] | 7.9 | 
O=[N+]([O-])c1ccc(S(=O)(=O)Nc2ccccc2CNc2ccc(F)c(Cl)c2)cc1 | 34.2 | 
C=C1C(=O)O[C@@H]2/C=C(\C)CC/C=C(\C)CC[C@@H]12 [COSTUNOLIDE] | 45.4 | 
O=C(Nc1ccc(Cl)c(Cl)c1)Nc1ccccc1NS(=O)(=O)c1cccc([N+](=O)[O-])c1 | 21.6 | 
O=[N+]([O-])c1ccc(S(=O)(=O)Nc2ccccc2CNc2cc(F)ccc2Cl)cc1 | 26 | inhibition [3]: Active; inhibition [4]: Active; inhibition [5]: Active; inhibition [6]: Active
COc1cccc(NCc2ccccc2NS(=O)(=O)c2cccc([N+](=O)[O-])c2)c1 | 23.2 | 
O=S(=O)(Nc1ccccc1CNc1cc(Cl)c(Cl)c(Cl)c1)c1ccc(Cl)cc1 | 31.7 | 
O=C(Nc1ccc(Cl)cc1Cl)Nc1ccccc1NS(=O)(=O)c1ccc([N+](=O)[O-])cc1 | 25.8 | 
Cc1cccc(S(=O)(=O)Nc2ccccc2CNc2cc(Cl)c(Cl)c(Cl)c2)c1 | 2.2 | 
O=C(Nc1ccc(Cl)cc1)Nc1ccccc1NS(=O)(=O)c1ccc([N+](=O)[O-])cc1 | 23.6 | 
Cc1cccc(S(=O)(=O)Nc2ccccc2NC(=O)c2cc(Cl)c(Cl)c(Cl)c2)c1 | 15.3 | 

SMILES | inhibition at 25 µM [1] [%] | also measured
O=[N+]([O-])c1cccc(S(=O)(=O)Nc2ccccc2CNc2cc(Cl)c(Cl)c(Cl)c2)c1 | 42.3 | inhibition [2]: Active
Cc1ccc(S(=O)(=O)Nc2ccccc2CNc2cc(Cl)c(Cl)c(Cl)c2)cc1 | 3.4 | 
O=C(Nc1ccccc1NS(=O)(=O)c1cccc([N+](=O)[O-])c1)c1cc(Cl)ccc1Cl | 24.6 | 
O=[N+]([O-])c1ccc(S(=O)(=O)Nc2ccccc2CNc2cc(Cl)ccc2Cl)cc1 | 32.3 | inhibition [3]: Active; inhibition [4]: Active; inhibition [5]: Active; inhibition [2]: Active; inhibition [6]: Active
O=C(Nc1ccc(Cl)cc1)Nc1ccccc1NS(=O)(=O)c1cccc([N+](=O)[O-])c1 | 21.9 | 
COc1ccc(S(=O)(=O)Nc2ccccc2CNc2cc(Cl)c(Cl)c(Cl)c2)cc1 | 1.2 | 
O=[N+]([O-])c1cccc(S(=O)(=O)Nc2ccccc2CNc2cc(F)ccc2Cl)c1 | 29.8 | 
COc1ccc(C(F)(F)F)cc1NC(=O)Nc1ccccc1NS(=O)(=O)c1ccc([N+](=O)[O-])cc1 | 21.5 | 
COc1cccc(S(=O)(=O)Nc2ccccc2NC(=O)c2cc(Cl)c(Cl)c(Cl)c2)c1 | 1.5 | 
O=C(Nc1ccccc1NS(=O)(=O)c1cccc([N+](=O)[O-])c1)c1ccc(Cl)cc1Cl | 27.9 | 
O=[N+]([O-])c1ccc(S(=O)(=O)Nc2ccccc2CNc2cc(Cl)c(Cl)c(Cl)c2)cc1 | 48.7 | inhibition [3]: Active; inhibition [4]: Active; inhibition [5]: Active; inhibition [2]: Active; inhibition [6]: Active
O=C(Nc1ccccc1NS(=O)(=O)c1ccc([N+](=O)[O-])cc1)c1ccc(Cl)c(Cl)c1 | 49.3 | inhibition [3]: Active; inhibition [4]: Active; inhibition [5]: Active; inhibition [2]: Active; inhibition [6]: Active
O=S(=O)(Nc1ccccc1CNc1cc(Cl)c(Cl)c(Cl)c1)c1cccc(C(F)(F)F)c1 | 37.3 | 
COc1cccc(S(=O)(=O)Nc2ccccc2NC(=O)Nc2cc(Cl)c(Cl)c(Cl)c2)c1 | 16.9 | 
COc1cccc(S(=O)(=O)Nc2ccccc2CNc2cc(Cl)c(Cl)c(Cl)c2)c1 | 11.9 | 
O=C(Nc1cc(C(F)(F)F)ccc1Cl)Nc1ccccc1NS(=O)(=O)c1cccc([N+](=O)[O-])c1 | 21.3 | 
O=C(Nc1ccccc1NS(=O)(=O)c1ccc([N+](=O)[O-])cc1)c1cc(Cl)ccc1Cl | 26.5 | 
O=C(Nc1cc(C(F)(F)F)ccc1Cl)Nc1ccccc1NS(=O)(=O)c1ccc([N+](=O)[O-])cc1 | 39.4 | 
O=C(Nc1ccccc1NS(=O)(=O)c1cccc([N+](=O)[O-])c1)c1ccc(F)c(Cl)c1 | 37.1 | 
O=C(Nc1ccc(Cl)cc1Cl)Nc1ccccc1NS(=O)(=O)c1cccc(OC(F)(F)F)c1 | 26.2 | 
Cc1ccc(NCc2ccccc2NS(=O)(=O)c2cccc([N+](=O)[O-])c2)cc1 | 14.7 | 
O=S(=O)(Nc1ccccc1CNc1cc(Cl)c(Cl)c(Cl)c1)c1cccc(OC(F)(F)F)c1 | 33.5 | 
O=S(=O)(Nc1ccccc1CNc1cc(Cl)c(Cl)c(Cl)c1)c1cccc(Cl)c1 | 33.4 | 
COc1ccc(NC(=O)Nc2ccccc2NS(=O)(=O)c2cccc([N+](=O)[O-])c2)cc1 | 25.4 | 
COc1ccc(NC(=O)Nc2ccccc2NS(=O)(=O)c2ccc([N+](=O)[O-])cc2)cc1 | 14.5 | 
O=[N+]([O-])c1cccc(S(=O)(=O)Nc2ccccc2CNc2ccc(F)c(Cl)c2)c1 | 24.1 | 
